# Measurements: publication PMC6199744, “Development of Chemical Proteomics for the Folateome and Analysis of the Kinetoplastid Folateome” (ACS Infectious Diseases, 2018)
# Read-outs that look alike come from different tables or passages of the source.
# Test system: T. brucei lysate proteins
# Assay type: binding, Trypanosoma brucei
# Conditions: for abundance relative to vehicle: X016405, bead mixture, free compound 100.0uM, Trypanosoma brucei
smiles,measurement,setting,value
Nc1nc2cccc(-c3ccccc3)c2n1Cc1ccc(Cl)c(Cl)c1 [compound 3],abundance relative to vehicle,protein TB427.02.1850,0.84
same,abundance relative to vehicle,protein TB427.06.4760,0.94
same,abundance relative to vehicle,protein TB427.07.3620,0.78
same,abundance relative to vehicle,protein TB427.08.1880,1.20
same,fold change - vehicle control,protein RHS6A (CZT00028360.1),0.89
same,fold change - vehicle control,"protein TB09.160.1250 HY[…], CONSERVED",0.88
same,fold change - vehicle control,"protein TB09.160.3670 RIBOSOMAL PROTEIN S6, PUTATIVE",0.98
same,fold change - vehicle control,"protein TB09.211.2630 60S RIBOSOMAL PROTEIN L23, PUTATIVE",0.92
same,fold change - vehicle control,protein TB09.211.4513 KIN[…] PROTEIN KMP-11,1.1
same,fold change - vehicle control,protein TB11.V4.0005 RIBONUCLEOSIDE-DIPHOSPHATE REDUCTASE SMALL CHAIN,0.81
same,fold change - vehicle control,"protein TB11.01.0870 R[…] A, 51KDA SUBUNIT, PUTATIVE",1.11
same,fold change - vehicle control,"protein TB11.01.2560 40S RIBOSOMAL PROTEIN SA, PUTATIVE",0.92
same,fold change - vehicle control,"protein TB11.01.4880 HY[…], CONSERVED",0.9
same,fold change - vehicle control,"protein TB11.01.7090 HY[…], CONSERVED",0.87
same,fold change - vehicle control,protein TB11.02.2510 GUANINE NUCLEOTIDE-BINDING BETA SUBUNIT-LIKE PROTEIN,0.96
same,fold change - vehicle control,"protein TB11.02.4170 40S RIBOSOMAL PROTEIN S5, PUTATIVE",0.92
same,fold change - vehicle control,protein TB11.03.0250 C[…],1.22
same,fold change - vehicle control,"protein TB11.46.0009 HY[…], CONSERVED",0.89
same,fold change - vehicle control,"protein TB427TMP.01.0620 HY[…], CONSERVED",0.76
same,fold change - vehicle control,"protein TB427TMP.01.1475 40S RIBOSOMAL PROTEIN S27, PUTATIVE",1.02
same,fold change - vehicle control,"protein TB427TMP.01.4280 HY[…], CONSERVED",0.82
same,fold change - vehicle control,"protein TB427TMP.01.4650 HY[…], CONSERVED",0.97
same,fold change - vehicle control,"protein TB427TMP.01.4810 HY[…], CONSERVED",0.99
same,fold change - vehicle control,"protein TB427TMP.01.5680 HY[…], CONSERVED",0.54
same,fold change - vehicle control,"protein TB427TMP.01.8390 HY[…], CONSERVED",0.84
same,fold change - vehicle control,"protein TB427TMP.02.0230 HY[…], CONSERVED",1.04
same,fold change - vehicle control,protein TB427TMP.02.0460 NUCLEOPORIN,0.82
same,fold change - vehicle control,protein TB427TMP.02.1106 NUCLEOBASE/NUCLEOSIDE TRANSPORTER 8 1,1.05
same,fold change - vehicle control,"protein TB427TMP.160.2050 ENDO-BETA-N-ACETYLGLUCOSAMINIDASE, PUTATIVE",0.92
same,fold change - vehicle control,protein TB427TMP.160.4310 GLUTAMATE DEHYDROGENASE,0.97
same,fold change - vehicle control,"protein TB427TMP.160.4450 40S RIBOSOMAL PROTEIN S3, PUTATIVE",0.97
same,fold change - vehicle control,"protein TB427TMP.160.4630 HY[…], CONSERVED",0.86
same,fold change - vehicle control,"protein TB427TMP.160.5200 HY[…], CONSERVED",0.69
same,fold change - vehicle control,"protein TB427TMP.160.5670 HY[…], CONSERVED",0.83
same,fold change - vehicle control,protein TB427TMP.211.0930 POLYADENYLATE-BINDING PROTEIN 1,0.97
same,fold change - vehicle control,"protein TB427TMP.211.1750 MIT[…] PROTEIN, PUTATIVE",0.88
same,fold change - vehicle control,"protein TB427TMP.211.3510 ATP-DEPENDENT DEAD/H RNA HELICASE, PUTATIVE",1.06
same,fold change - vehicle control,"protein TB427TMP.211.4540 RNA-BINDING PROTEIN, PUTATIVE",1.05
same,fold change - vehicle control,"protein TB427TMP.244.2840 HY[…], CONSERVED",0.92
same,fold change - vehicle control,"protein TB427.01.1240 CYTIDINE TR[…], PUTATIVE",0.84
same,fold change - vehicle control,protein TB427.01.2570 COATOMER BETA SUBUNIT,0.73
same,fold change - vehicle control,"protein TB427.01.3910 HY[…], CONSERVED",0.78
same,fold change - vehicle control,"protein TB427.02.450 RETRO[…] SPOT (RHS) PROTEIN, PUTATIVE",0.81
same,fold change - vehicle control,protein TB427.02.6240,1.08
same,fold change - vehicle control,"protein TB427.04.3350 HY[…], CONSERVED",0.72
same,fold change - vehicle control,"protein TB427.04.3890 ATP-DEPENDENT RNA HELICASE, PUTATIVE",0.92
same,fold change - vehicle control,"protein TB427.04.4870 AMINO ACID TRANSPORTER, PUTATIVE",0.87
same,fold change - vehicle control,"protein TB427.04.750 50S RIBOSOMAL PROTEIN L7AE, PUTATIVE",1.12
same,fold change - vehicle control,"protein TB427.04.960 HY[…], CONSERVED",0.88
same,fold change - vehicle control,"protein TB427.05.1490 HY[…], CONSERVED",0.8
same,fold change - vehicle control,"protein TB427.05.1780 HY[…], CONSERVED",0.77
same,fold change - vehicle control,"protein TB427.05.3030 INTR[…] PROTEIN IFT122, PUTATIVE",0.89
same,fold change - vehicle control,"protein TB427.05.4560 GUANINE DEAMINASE, PUTATIVE",0.7
same,fold change - vehicle control,"protein TB427.06.2150 CELL DIVISION CYCLE PROTEIN 16, PUTATIVE",0.83
same,fold change - vehicle control,"protein TB427.06.3110 PROTEIN KINASE, PUTATIVE (CRK11)",0.87
same,fold change - vehicle control,"protein TB427.06.5110 DAMAGE-SPECIFIC DNA BINDING PROTEIN, PUTATIVE",0.98
same,fold change - vehicle control,"protein TB427.07.2670 HY[…], CONSERVED",3.19
same,fold change - vehicle control,"protein TB427.07.3040 HY[…], CONSERVED",0.98
same,fold change - vehicle control,"protein TB427.07.3530 HY[…], CONSERVED",0.87
same,fold change - vehicle control,"protein TB427.07.4970 GLUTAMINE SYNTHETASE, PUTATIVE",0.9
same,fold change - vehicle control,"protein TB427.07.5560 GLUCOSAMINE-FRUCTOSE-6-PHOSPHATE AMINOTRANSFERASE, PUTATIVE",0.84
same,fold change - vehicle control,"protein TB427.07.5890 HY[…], CONSERVED",0.79
same,fold change - vehicle control,"protein TB427.07.7070 HY[…], CONSERVED",0.62
same,fold change - vehicle control,"protein TB427.07.7460 HY[…], CONSERVED",0.91
same,fold change - vehicle control,"protein TB427.08.1500 HY[…], CONSERVED",0.95
same,fold change - vehicle control,"protein TB427.08.1840 HY[…], CONSERVED",0.95
same,fold change - vehicle control,"protein TB427.08.1960 HY[…], CONSERVED",0.78
same,fold change - vehicle control,"protein TB427.08.2080 HY[…], CONSERVED",1.08
same,fold change - vehicle control,"protein TB427.08.3750 NUCLEOLAR PROTEIN, PUTATIVE",0.92
same,fold change - vehicle control,"protein TB427.08.6390 LYSOPHOSPHOLIPASE, PUTATIVE",1.03
same,fold change - vehicle control,"protein TB427.10.10610 PROTEIN TYROSINE PHOSPHATASE, PUTATIVE",0.69
same,fold change - vehicle control,"protein TB427.10.1100 60S RIBOSOMAL PROTEIN L9, PUTATIVE",0.86
same,fold change - vehicle control,protein TB427.10.12740,0.9
same,fold change - vehicle control,"protein TB427.10.14660 HY[…], CONSERVED",1.05
same,fold change - vehicle control,protein TB427.10.15720 […]-ATP-ASE SUBUNIT 9,0.82
same,fold change - vehicle control,protein TB427.10.2440 METACASPASE MCA4,0.84
same,fold change - vehicle control,"protein TB427.10.2900 IMPORTIN BETA-1 SUBUNIT, PUTATIVE",0.79
same,fold change - vehicle control,"protein TB427.10.3470 HY[…], CONSERVED",0.74
same,fold change - vehicle control,protein TB427.10.4110 60S RIBOSOMAL PROTEIN L30,0.91
same,fold change - vehicle control,"protein TB427.10.4610 […]-MANNOSE SYNTHASE, PUTATIVE",0.85
same,fold change - vehicle control,"protein TB427.10.5250 HY[…], CONSERVED",0.82
same,fold change - vehicle control,"protein TB427.10.5840 T[…] 1-BETA, PUTATIVE",0.65
same,fold change - vehicle control,"protein TB427.10.7410 SUCCINYL-COA LIGASE GDP-FORMING] BETA-CHAIN, PUTATIVE",0.85
same,fold change - vehicle control,protein TB927.10.12960 RAS-RELATED PROTEIN RAB-5,0.9
same,fold change - vehicle control,"protein TB927.10.14800 PROTEIN KINASE, PUTATIVE",1.09
same,fold change - vehicle control,protein TB927.10.2980 […]-ATPASE SUBUNIT 11,1.07
same,fold change - vehicle control,protein TB927.10.3660 ASPARTATE AMINOTRANSFERASE,0.86
same,fold change - vehicle control,protein TB927.10.4570 […] 2,0.66
same,fold change - vehicle control,"protein TB927.10.5140 PROTEIN KINASE, PUTATIVE",1.06
same,fold change - vehicle control,"protein TB927.10.560 40S RIBOSOMAL PROTEINS S11, PUTATIVE",0.95
same,fold change - vehicle control,"protein TB927.10.6510 CHAPERONIN HSP60, MIT[…]",0.86
same,fold change - vehicle control,"protein TB927.3.1840 3-OXO-5-ALPHA-STEROID 4-DEHYDROGENASE, PUTATIVE",0.92
same,fold change - vehicle control,protein TB927.3.3780 TRYPAREDOXIN,0.85
same,fold change - vehicle control,"protein TB927.3.740 HY[…], CONSERVED",0.91
same,fold change - vehicle control,"protein TB927.4.2740 HY[…], CONSERVED",1.05
same,fold change - vehicle control,"protein TB927.4.3590 T[…] 1-BETA, PUTATIVE",0.69
same,fold change - vehicle control,"protein TB927.6.4320 HY[…], CONSERVED",0.75
same,fold change - vehicle control,protein TB927.7.2550 […] SUBUNIT 5,0.86
same,fold change - vehicle control,"protein TB927.7.2980 HY[…], CONSERVED",0.75
